This passage reports IC50 results from ChEMBL document CHEMBL1129590, “Tyrphostins. 6. Dimeric benzylidenemalononitrile tyrophostins: potent inhibitors of EGF receptor tyrosine kinase in vitro” (J Med Chem, 1996).

In one assay the target is T1, Epidermal growth factor receptor (Homo sapiens, UniProt P00533). As to the kind of experiment: Inhibitory activity of compound against Epidermal growth factor receptor autophosphorylation.
T1 sequence (P00533 whole entry): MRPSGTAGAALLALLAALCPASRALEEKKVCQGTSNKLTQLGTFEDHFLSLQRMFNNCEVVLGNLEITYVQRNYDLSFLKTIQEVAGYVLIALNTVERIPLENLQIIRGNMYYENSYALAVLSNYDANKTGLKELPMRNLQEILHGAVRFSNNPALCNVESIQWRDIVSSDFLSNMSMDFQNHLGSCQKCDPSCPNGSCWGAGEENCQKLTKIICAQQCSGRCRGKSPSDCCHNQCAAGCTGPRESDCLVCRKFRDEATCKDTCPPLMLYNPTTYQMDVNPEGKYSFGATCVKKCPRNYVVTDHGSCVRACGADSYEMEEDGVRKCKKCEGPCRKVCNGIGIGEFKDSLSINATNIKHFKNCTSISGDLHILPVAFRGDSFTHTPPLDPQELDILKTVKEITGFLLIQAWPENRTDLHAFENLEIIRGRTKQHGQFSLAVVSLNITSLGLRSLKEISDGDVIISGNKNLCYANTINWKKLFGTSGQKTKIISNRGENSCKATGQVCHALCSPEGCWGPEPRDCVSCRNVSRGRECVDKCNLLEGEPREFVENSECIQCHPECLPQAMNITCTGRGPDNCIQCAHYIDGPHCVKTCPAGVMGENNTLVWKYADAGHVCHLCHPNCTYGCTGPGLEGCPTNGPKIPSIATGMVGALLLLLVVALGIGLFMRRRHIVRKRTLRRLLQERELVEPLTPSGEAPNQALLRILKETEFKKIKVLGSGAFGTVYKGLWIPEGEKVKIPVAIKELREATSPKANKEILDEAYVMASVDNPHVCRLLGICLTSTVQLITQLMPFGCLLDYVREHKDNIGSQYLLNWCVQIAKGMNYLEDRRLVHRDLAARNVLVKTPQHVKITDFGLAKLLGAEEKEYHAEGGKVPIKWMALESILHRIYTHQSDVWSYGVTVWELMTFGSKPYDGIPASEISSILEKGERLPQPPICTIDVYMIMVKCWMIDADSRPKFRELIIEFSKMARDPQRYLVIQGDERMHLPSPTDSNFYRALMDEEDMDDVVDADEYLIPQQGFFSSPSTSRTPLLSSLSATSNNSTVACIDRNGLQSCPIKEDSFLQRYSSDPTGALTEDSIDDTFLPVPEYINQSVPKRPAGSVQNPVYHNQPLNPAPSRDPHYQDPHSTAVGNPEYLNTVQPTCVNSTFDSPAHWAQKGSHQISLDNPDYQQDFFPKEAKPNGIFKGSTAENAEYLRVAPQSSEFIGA
As a reminder, the IC50 is the concentration that gives 50% inhibition. Consider `N#C/C(=C\c1cc(O)c(O)c([N+](=O)[O-])c1)C(=O)NCCCNC(=O)/C(C#N)=C/c1cc(O)c(O)c([N+](=O)[O-])c1`, for which the IC50 was > 100 µM. Compound `N#C/C(=C\c1cc(O)c(O)c(O)c1)C(=O)NCCCCNC(=O)/C(C#N)=C/c1cc(O)c(O)c(O)c1` gave an IC50 of 21 µM. The same measure, in the same setting: as for `N#C/C(=C\c1ccc(O)c(O)c1)C(=O)NC1CCCC[C@@H]1NC(=O)/C(C#N)=C/c1ccc(O)c(O)c1` (some centres not stated), the figure is 13.5 µM; as for `N#C/C(=C\c1ccc(O)c(O)c1)C(=O)NCCCCCCNC(=O)/C(C#N)=C/c1ccc(O)c(O)c1`, 11 µM.

As for `N#C/C(=C\c1ccc(O)c(O)c1)C(=O)NCN1CCN(C(=O)/C(C#N)=C/c2ccc(O)c(O)c2)CC1`, the half-maximal inhibitory concentration (IC50) was > 83 µM.

Compound `N#C/C(=C\c1ccc(O)c(O)c1)C(=O)NCCN1CCN(C(=O)/C(C#N)=C/c2ccc(O)c(O)c2)CC1` displayed an IC50 of 10 µM. Same read-out and setting: as for `COc1cc(/C=C(\C#N)C(=O)NCCCCNC(=O)/C(C#N)=C/c2cc(OC)c(O)c([N+](=O)[O-])c2)cc([N+](=O)[O-])c1O`, the figure is 19 µM. On to `N#C/C(=C\c1cc(O)c(O)c(Br)c1)C(=O)NCCCNC(=O)/C(C#N)=C/c1cc(O)c(O)c(Br)c1`, for which half-maximal inhibition (IC50) was put at 3.9 µM. Same read-out and setting: to `N#C/C(=C\c1ccc(O)c(O)c1)C(=O)NCCCCCNC(=O)/C(C#N)=C/c1ccc(O)c(O)c1` belongs 20 µM. Same read-out and setting: as for `N#C/C(=C\c1ccc(O)c(O)c1)C(=O)NCCCCNC(=O)/C(C#N)=C/c1ccc(O)c(O)c1`, the figure is 4.3 µM. On to `N#C/C(=C\c1ccc(O)c(O)c1)C(=O)NCCCCCCCCCCNC(=O)/C(C#N)=C/c1ccc(O)c(O)c1`, for which the IC50 is > 100 µM. As for `N#C/C(=C\c1ccc2[nH]ccc2c1)C(=O)NCCCNC(=O)/C(C#N)=C/c1ccc2[nH]ccc2c1`, the concentration for half-maximal inhibition (IC50) was > 100 µM. Same read-out and setting: to `N#C/C(=C\c1ccc(O)c(O)c1)C(=O)NCCCN1CCN(CCCNC(=O)/C(C#N)=C/c2ccc(O)c(O)c2)CC1` belongs > 167 µM; to `COc1cc(/C=C(\C#N)C(=O)NCCCCNC(=O)/C(C#N)=C/c2cc(Br)c(O)c(OC)c2)cc(Br)c1O`, 102 µM. The same measure, in the same setting: as for `N#C/C(=C\c1ccc(O)c(O)c1)C(=O)NCC1CCCC(CNC(=O)/C(C#N)=C/c2ccc(O)c(O)c2)C1` (configuration not stated), the figure is > 100 µM. The same measure, in the same setting: to `N#C/C(=C\c1ccc(O)c(O)c1)S(=O)(=O)/C(C#N)=C/c1ccc(O)c(O)c1` belongs 12 µM; to `N#C/C(=C\c1ccc(O)c(O)c1)C(=O)NCCNC(=O)/C(C#N)=C/c1ccc(O)c(O)c1`, 113 µM; to `N#C/C(=C\c1ccc(O)c(O)c1)C(=O)NC1CCC(CC2CCC(NC(=O)/C(C#N)=C/c3ccc(O)c(O)c3)CC2)CC1` (configuration not stated), > 83 µM. `N#C/C(=C\c1ccc(O)c(O)c1)C(=O)NCc1cccc(CNC(=O)/C(C#N)=C/c2ccc(O)c(O)c2)c1` showed an IC50 of 10.3 µM. Still for that read-out and setting: to `N#C/C(=C\c1cc(O)c(O)c(Br)c1)S(=O)(=O)/C(C#N)=C/c1cc(O)c(O)c(Br)c1` belongs 1.4 µM. The same measure, in the same setting: as for `N#C/C(=C\c1ccc(O)c(O)c1)C(=O)N1CCN(C(=O)/C(C#N)=C/c2ccc(O)c(O)c2)CC1`, the figure is 25 µM.

A further assay has as its target T1, Epidermal growth factor receptor. As to the kind of experiment: Inhibition of epidermal growth factor receptor (EGFR) phosphorylation of the exogenous substrate poly(Glu6, Ala3,Tyr) (polyGAT).
Take `N#C/C(=C\c1cc(O)c(O)c(O)c1)C(=O)NCCCCNC(=O)/C(C#N)=C/c1cc(O)c(O)c(O)c1`: the 50% inhibitory concentration (IC50) was 0.6 µM. Still for that read-out and setting: as for `N#C/C(=C\c1ccc(O)c(O)c1)C(=O)NC1CCCC[C@@H]1NC(=O)/C(C#N)=C/c1ccc(O)c(O)c1` (some centres not stated), the figure is 2.1 µM.

As for `N#C/C(=C\c1ccc(O)c(O)c1)C(=O)NCCCCCCNC(=O)/C(C#N)=C/c1ccc(O)c(O)c1`, half-maximal inhibition (IC50) required 0.7 µM.

In the case of `N#C/C(=C\c1ccc(O)c(O)c1)C(=O)NCCN1CCN(C(=O)/C(C#N)=C/c2ccc(O)c(O)c2)CC1`, the IC50 was 2.2 µM. The same measure, in the same setting: to `COc1cc(/C=C(\C#N)C(=O)NCCCCNC(=O)/C(C#N)=C/c2cc(OC)c(O)c([N+](=O)[O-])c2)cc([N+](=O)[O-])c1O` belongs 112 µM.

With `N#C/C(=C\c1cc(O)c(O)c(Br)c1)C(=O)NCCCNC(=O)/C(C#N)=C/c1cc(O)c(O)c(Br)c1`, it took 0.34 µM to reach half-maximal inhibition (IC50).

Compound `N#C/C(=C\c1ccc(O)c(O)c1)C(=O)NCCCCCNC(=O)/C(C#N)=C/c1ccc(O)c(O)c1` displayed an IC50 of 0.7 µM. As for `N#C/C(=C\c1ccc(O)c(O)c1)C(=O)NCCCCNC(=O)/C(C#N)=C/c1ccc(O)c(O)c1`, half-maximal inhibition (IC50) was put at 0.6 µM. In turn, `N#C/C(=C\c1ccc(O)c(O)c1)C(=O)NCCCCCCCCCCNC(=O)/C(C#N)=C/c1ccc(O)c(O)c1` showed an IC50 of 1.3 µM. Still for that read-out and setting: as for `N#C/C(=C\c1ccc2[nH]ccc2c1)C(=O)NCCCNC(=O)/C(C#N)=C/c1ccc2[nH]ccc2c1`, the figure is > 100 µM. Still for that read-out and setting: as for `N#C/C(=C\c1ccc(O)c(O)c1)C(=O)NCC1CCCC(CNC(=O)/C(C#N)=C/c2ccc(O)c(O)c2)C1` (configuration not stated), the figure is 1.8 µM; as for `N#C/C(=C\c1ccc(O)c(O)c1)S(=O)(=O)/C(C#N)=C/c1ccc(O)c(O)c1`, 0.38 µM. The same measure, in the same setting: as for `N#C/C(=C\c1ccc(O)c(O)c1)C(=O)NCCNC(=O)/C(C#N)=C/c1ccc(O)c(O)c1`, the figure is 0.5 µM. In turn, `N#C/C(=C\c1ccc(O)c(O)c1)C(=O)NCc1cccc(CNC(=O)/C(C#N)=C/c2ccc(O)c(O)c2)c1` yielded an IC50 of 1.6 µM. The same measure, in the same setting: to `N#C/C(=C\c1cc(O)c(O)c(Br)c1)S(=O)(=O)/C(C#N)=C/c1cc(O)c(O)c(Br)c1` belongs 0.85 µM; to `N#C/C(=C\c1ccc(O)c(O)c1)C(=O)N1CCN(C(=O)/C(C#N)=C/c2ccc(O)c(O)c2)CC1`, 4 µM.
